Source: ChEMBL document CHEMBL1201862, “PubChem BioAssay data set” (2004)
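Growth conditions: 96-well plates. Treatment: test compound, 48 hours, 5 concentrations. Analysis: linear interpolation between bracketing concentrations; unreached endpoints set to highest concentration. GI50 is the concentration that inhibits growth by half.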 Active and inactive are the calls of the source. Cut-off read from the data, not from the text of the source: active = GI50 up to about 1.1 µM and inactive = higher.

Columns and labels:
Assay in all cases: DTP human tumour cell line panel, 48 h
COLO 205 = system: COLO 205
HL-60 = system: HL-60
M14 = system: M14
CAKI-1 = system: CAKI-1
UACC-257 = system: UACC-257
HCT-116 = system: HCT-116
Hs-578T = system: Hs-578T
MDA-MB-435 = system: MDA-MB-435
U-251 = system: U-251
SK-MEL-28 = system: SK-MEL-28
LOX IMVI = system: LOX IMVI
OVCAR-5 = system: OVCAR-5
HOP-92 = system: HOP-92
A549 = system: A549
ACHN = system: ACHN
NCI-H226 = system: NCI-H226
SR = system: SR
SNB-75 = system: SNB-75
PC-3 = system: PC-3
SN12C = system: SN12C
SW-620 = system: SW-620
HOP-62 = system: HOP-62
MDA-N = system: MDA-N
UACC-62 = system: UACC-62
OVCAR-4 = system: OVCAR-4
Malme-3M = system: Malme-3M
K562 = system: K562
OVCAR-8 = system: OVCAR-8
KM12 = system: KM12
OVCAR-3 = system: OVCAR-3
SF-268 = system: SF-268
TK-10 = system: TK-10
RPMI-8226 = system: RPMI-8226
SK-OV-3 = system: SK-OV-3
SK-MEL-5 = system: SK-MEL-5
T47D = system: T47D
UO-31 = system: UO-31
CCRF-CEM = system: CCRF-CEM
HCT-15 = system: HCT-15
DU-145 = system: DU-145
SK-MEL-2 = system: SK-MEL-2
MDA-MB-231 = system: MDA-MB-231
EKVX = system: EKVX
NCI-H522 = system: NCI-H522
SF-539 = system: SF-539
786-0 = system: 786-0
A498 = system: A498
RXF 393 = system: RXF 393
SF-295 = system: SF-295
SNB-19 = system: SNB-19
HT-29 = system: HT-29
BT-549 = system: BT-549
MOLT-4 = system: MOLT-4
MCF7 = system: MCF7
NCI/ADR-RES = system: NCI/ADR-RES
IGROV-1 = system: IGROV-1
NCI-H23 = system: NCI-H23
NCI-H460 = system: NCI-H460

SMILES: Nc1nc(N)nc(CCCCc2nc(N)nc(N)n2)n1
- GI50 (COLO 205): > 100 µM (inactive)
- GI50 (HL-60): > 100 µM (inactive)
- GI50 (M14): > 100 µM (inactive)
- GI50 (CAKI-1): > 100 µM (inactive)
- GI50 (UACC-257): > 100 µM (inactive)
- GI50 (HCT-116): > 100 µM (inactive)
- GI50 (Hs-578T): > 100 µM (inactive)
- GI50 (MDA-MB-435): > 100 µM (inactive)
- GI50 (U-251): > 100 µM (inactive)
- GI50 (SK-MEL-28): > 100 µM (inactive)
- GI50 (LOX IMVI): > 100 µM (inactive)
- GI50 (OVCAR-5): > 100 µM (inactive)
- GI50 (HOP-92): > 100 µM (inactive)
- GI50 (A549): > 100 µM (inactive)
- GI50 (ACHN): > 100 µM (inactive)
- GI50 (NCI-H226): > 100 µM (inactive)
- GI50 (SR): > 100 µM (inactive)
- GI50 (SNB-75): > 100 µM (inactive)
- GI50 (PC-3): > 100 µM (inactive)
- GI50 (SN12C): > 100 µM (inactive)
- GI50 (SW-620): > 100 µM (inactive)
- GI50 (HOP-62): > 100 µM (inactive)
- GI50 (MDA-N): > 100 µM (inactive)
- GI50 (UACC-62): > 100 µM (inactive)
- GI50 (OVCAR-4): > 100 µM (inactive)
- GI50 (Malme-3M): > 100 µM (inactive)
- GI50 (K562): > 100 µM (inactive)
- GI50 (OVCAR-8): > 100 µM (inactive)
- GI50 (KM12): > 100 µM (inactive)
- GI50 (OVCAR-3): > 100 µM (inactive)
- GI50 (SF-268): > 100 µM (inactive)
- GI50 (TK-10): > 100 µM (inactive)
- GI50 (RPMI-8226): > 100 µM (inactive)
- GI50 (SK-OV-3): > 100 µM (inactive)
- GI50 (SK-MEL-5): > 100 µM (inactive)
- GI50 (T47D): > 100 µM (inactive)
- GI50 (UO-31): > 100 µM (inactive)
- GI50 (CCRF-CEM): > 100 µM (inactive)
- GI50 (HCT-15): > 100 µM
- GI50 (DU-145): > 100 µM (inactive)
- GI50 (SK-MEL-2): > 100 µM (inactive)
- GI50 (MDA-MB-231): > 100 µM (inactive)
- GI50 (EKVX): > 100 µM (inactive)
- GI50 (NCI-H522): > 100 µM (inactive)
- GI50 (SF-539): > 100 µM (inactive)
- GI50 (786-0): > 100 µM (inactive)
- GI50 (A498): > 100 µM (inactive)
- GI50 (RXF 393): > 100 µM (inactive)
- GI50 (SF-295): > 100 µM (inactive)
- GI50 (SNB-19): > 100 µM (inactive)
- GI50 (HT-29): > 100 µM (inactive)
- GI50 (BT-549): > 100 µM (inactive)
- GI50 (MOLT-4): > 100 µM (inactive)
- GI50 (MCF7): > 100 µM (inactive)
- GI50 (NCI/ADR-RES): > 100 µM (inactive)
- GI50 (IGROV-1): > 100 µM (inactive)
- GI50 (NCI-H23): > 100 µM (inactive)
- GI50 (NCI-H460): > 100 µM (inactive)
